# Results from ChEMBL document CHEMBL1201862, “PubChem BioAssay data set” (2004).
# Calls of active or inactive are those of the source.
# Columns and labels:
# Beta-galactosidase = Beta-galactosidase (Escherichia coli, UniProt Q8VNN2); experiment: PubChem AID 485352; type: functional
# [1] = biological target: Type-1 angiotensin II receptor (Homo sapiens, UniProt P30556); experiment: antagonism of angiotensin II type 1 receptor – cell-based, uHTS hits, selectivity assay for APJ receptor antagonist project, dose response (AID 463214); type: functional;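 note: antagonist potency against angiotensin II stimulated AT1 response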
# Bcl-2-related protein A1 = biological target: T1, Bcl-2-related protein A1 (Mus musculus, UniProt Q07440); type: functional;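 note: confirmatory dose–response counterscreen on Bfl-1, used to check hits from a UBC13 polyubiquitin inhibitor campaign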
# T1 sequence (Q07440 whole entry): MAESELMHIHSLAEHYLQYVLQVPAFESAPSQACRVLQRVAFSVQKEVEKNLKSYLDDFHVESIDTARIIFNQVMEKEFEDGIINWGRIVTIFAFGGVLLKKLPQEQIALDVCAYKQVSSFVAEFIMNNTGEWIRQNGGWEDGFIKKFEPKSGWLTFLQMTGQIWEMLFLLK
# [2] = biological target: T2, Ubiquitin-conjugating enzyme E2 N (Homo sapiens, UniProt P61088); type: functional;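 note: Dose-response confirmation in a TR-FRET assay detecting UBC13-driven polyubiquitin chain formation, inhibition measured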
# T2 sequence (P61088 whole entry): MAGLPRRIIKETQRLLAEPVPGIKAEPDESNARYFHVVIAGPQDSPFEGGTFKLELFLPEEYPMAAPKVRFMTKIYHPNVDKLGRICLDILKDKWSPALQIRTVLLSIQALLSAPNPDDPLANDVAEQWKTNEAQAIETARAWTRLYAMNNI
# Melanocortin receptor 4 = Melanocortin receptor 4 (Homo sapiens, UniProt P32245); experiment: inhibitors of MC4R cAMP signaling – cell-based, TR-FRET, biased antagonists, dose response (AID 602298); type: functional;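 note: antagonist potency against agonist-stimulated cAMP production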
# [3] = cAMP pathway inhibition in counterscreen cell line – TR-FRET cAMP detection, counter-screen for MC4R biased antagonist project, dose response (AID 602305); type: functional, cell-based;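 note: U2OS cells stimulated with forskolin near its EC80 as the cAMP inducer; potency is for inhibition of forskolin-stimulated cAMP signaling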
# [4] = biological target: T3, DNA repair protein RAD52 homolog (Homo sapiens, UniProt P43351); type: functional, biochemical
# T3 sequence (P43351 whole entry): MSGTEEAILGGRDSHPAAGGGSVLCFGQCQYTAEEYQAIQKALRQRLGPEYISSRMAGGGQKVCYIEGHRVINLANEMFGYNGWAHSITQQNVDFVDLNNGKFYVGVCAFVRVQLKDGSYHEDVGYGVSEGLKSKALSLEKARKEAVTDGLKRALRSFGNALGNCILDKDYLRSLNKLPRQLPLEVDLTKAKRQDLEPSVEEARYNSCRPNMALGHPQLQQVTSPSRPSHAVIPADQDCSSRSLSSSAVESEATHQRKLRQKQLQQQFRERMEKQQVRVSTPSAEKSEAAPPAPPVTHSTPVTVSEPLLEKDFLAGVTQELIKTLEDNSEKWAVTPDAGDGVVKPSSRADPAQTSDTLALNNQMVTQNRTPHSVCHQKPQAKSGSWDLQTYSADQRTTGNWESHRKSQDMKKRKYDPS
# Caspase-3 = biological target: T4, Caspase-3 (Homo sapiens, UniProt P42574); experiment: inhibition of recombinant caspase-3 activity – biochemical, luminescence, set 2, selectivity assay for SENP protease inhibitor project, SAR follow-up (AID 588599); type: functional
# T4 sequence (P42574 whole entry): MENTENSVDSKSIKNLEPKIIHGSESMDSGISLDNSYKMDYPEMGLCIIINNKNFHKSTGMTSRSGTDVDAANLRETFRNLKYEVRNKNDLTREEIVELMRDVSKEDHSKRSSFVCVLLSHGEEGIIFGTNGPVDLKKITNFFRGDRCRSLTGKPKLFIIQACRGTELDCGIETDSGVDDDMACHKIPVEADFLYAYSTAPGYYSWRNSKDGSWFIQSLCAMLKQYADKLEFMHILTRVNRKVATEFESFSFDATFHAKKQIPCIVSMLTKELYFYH
# [5] = biological target: T5, Sentrin-specific protease 8 (Homo sapiens, UniProt Q96LD8); experiment: inhibition of sentrin protease 8 – biochemical, luminescence, set 2, SAR follow-up (AID 588601); type: functional
# T5 sequence (Q96LD8 whole entry): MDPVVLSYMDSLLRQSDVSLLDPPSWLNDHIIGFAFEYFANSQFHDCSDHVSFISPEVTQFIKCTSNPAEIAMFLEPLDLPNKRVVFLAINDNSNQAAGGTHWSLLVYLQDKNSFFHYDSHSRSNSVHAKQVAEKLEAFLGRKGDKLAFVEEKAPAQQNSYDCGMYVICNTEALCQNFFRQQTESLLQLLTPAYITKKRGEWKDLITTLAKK
# [6] = biological target: T6, Sentrin-specific protease 7 (Homo sapiens, UniProt Q9BQF6); experiment: inhibition of human SENP7 cleavage activity – biochemical, luminescence, set 2, SAR follow-up (AID 588600); type: functional
# T6 sequence (Q9BQF6 whole entry): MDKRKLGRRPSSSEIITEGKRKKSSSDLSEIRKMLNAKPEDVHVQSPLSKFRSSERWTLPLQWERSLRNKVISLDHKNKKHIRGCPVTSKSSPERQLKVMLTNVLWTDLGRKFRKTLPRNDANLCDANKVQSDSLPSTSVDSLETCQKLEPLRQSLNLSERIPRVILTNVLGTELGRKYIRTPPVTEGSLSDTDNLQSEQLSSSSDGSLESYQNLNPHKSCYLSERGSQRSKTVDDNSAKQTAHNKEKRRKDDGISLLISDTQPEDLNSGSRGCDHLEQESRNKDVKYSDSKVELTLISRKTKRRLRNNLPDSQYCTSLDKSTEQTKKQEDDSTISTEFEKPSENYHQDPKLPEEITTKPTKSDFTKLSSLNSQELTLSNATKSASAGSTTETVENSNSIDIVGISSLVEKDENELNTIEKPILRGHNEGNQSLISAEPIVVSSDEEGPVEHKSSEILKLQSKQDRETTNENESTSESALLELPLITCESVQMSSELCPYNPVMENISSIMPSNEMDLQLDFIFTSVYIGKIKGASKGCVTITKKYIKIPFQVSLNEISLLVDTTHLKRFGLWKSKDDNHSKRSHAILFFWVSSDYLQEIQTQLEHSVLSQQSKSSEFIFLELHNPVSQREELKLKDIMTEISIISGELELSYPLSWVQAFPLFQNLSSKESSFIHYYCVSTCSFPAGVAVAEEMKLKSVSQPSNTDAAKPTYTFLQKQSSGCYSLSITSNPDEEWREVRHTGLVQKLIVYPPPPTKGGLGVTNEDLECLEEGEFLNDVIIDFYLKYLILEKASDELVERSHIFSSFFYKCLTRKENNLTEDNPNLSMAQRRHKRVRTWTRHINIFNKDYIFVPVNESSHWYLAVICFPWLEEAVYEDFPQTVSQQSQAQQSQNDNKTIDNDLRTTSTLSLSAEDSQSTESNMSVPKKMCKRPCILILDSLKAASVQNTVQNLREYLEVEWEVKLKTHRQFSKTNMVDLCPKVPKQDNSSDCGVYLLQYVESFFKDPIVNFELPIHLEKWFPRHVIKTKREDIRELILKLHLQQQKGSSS
# [7] = biological target: T7, Sentrin-specific protease 6 (Homo sapiens, UniProt Q9GZR1); experiment: inhibition of human SENP6 catalytic domain – biochemical, luminescence, set 2, SAR follow-up (AID 588598); type: functional
# T7 sequence (Q9GZR1 whole entry): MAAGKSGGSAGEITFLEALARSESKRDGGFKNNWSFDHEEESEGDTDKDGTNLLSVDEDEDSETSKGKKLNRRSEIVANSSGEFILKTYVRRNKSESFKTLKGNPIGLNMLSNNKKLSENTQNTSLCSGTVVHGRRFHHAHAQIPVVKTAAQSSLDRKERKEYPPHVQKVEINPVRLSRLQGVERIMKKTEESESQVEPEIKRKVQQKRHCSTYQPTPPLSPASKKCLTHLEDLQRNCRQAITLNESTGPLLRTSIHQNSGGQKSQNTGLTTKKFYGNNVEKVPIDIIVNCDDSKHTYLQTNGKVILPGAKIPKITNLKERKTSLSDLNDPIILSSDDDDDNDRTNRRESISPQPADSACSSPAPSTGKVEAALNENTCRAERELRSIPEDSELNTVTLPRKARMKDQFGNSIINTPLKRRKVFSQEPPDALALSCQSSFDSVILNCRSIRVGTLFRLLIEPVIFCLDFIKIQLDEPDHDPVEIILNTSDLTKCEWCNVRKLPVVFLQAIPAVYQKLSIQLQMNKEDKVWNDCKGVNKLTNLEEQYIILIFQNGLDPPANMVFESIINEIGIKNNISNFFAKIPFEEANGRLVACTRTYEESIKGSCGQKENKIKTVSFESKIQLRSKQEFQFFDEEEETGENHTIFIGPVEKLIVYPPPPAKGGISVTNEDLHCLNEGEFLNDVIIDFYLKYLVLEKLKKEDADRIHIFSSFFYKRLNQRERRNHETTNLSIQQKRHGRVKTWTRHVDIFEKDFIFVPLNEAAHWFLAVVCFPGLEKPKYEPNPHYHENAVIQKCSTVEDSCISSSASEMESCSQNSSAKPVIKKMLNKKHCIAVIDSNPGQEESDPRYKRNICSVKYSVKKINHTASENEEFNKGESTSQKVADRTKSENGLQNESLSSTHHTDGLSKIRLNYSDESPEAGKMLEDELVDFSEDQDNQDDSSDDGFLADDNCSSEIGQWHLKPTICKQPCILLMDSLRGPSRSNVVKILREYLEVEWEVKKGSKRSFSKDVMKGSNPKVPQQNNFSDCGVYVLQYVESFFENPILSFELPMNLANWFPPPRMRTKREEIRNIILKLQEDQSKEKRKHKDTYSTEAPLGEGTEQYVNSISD
# Hexokinase-1 = Hexokinase-1 (Homo sapiens, UniProt P19367); experiment: SAR analysis of small molecule inhibitors of hexokinase domain containing I (HKDC1) in the hexokinase 1 selectivity assay. [Related pubchem assays (depositor defined):AID493160, AID493190]; type: functional
# Hexokinase HKDC1 = biological target: T8, Hexokinase HKDC1 (Homo sapiens, UniProt Q2TB90); experiment: SAR analysis of small molecule inhibitors of hexokinase domain containing I (HKDC1). [Related pubchem assays (depositor defined):AID493160, AID493190]; type: functional
# T8 sequence (Q2TB90 whole entry): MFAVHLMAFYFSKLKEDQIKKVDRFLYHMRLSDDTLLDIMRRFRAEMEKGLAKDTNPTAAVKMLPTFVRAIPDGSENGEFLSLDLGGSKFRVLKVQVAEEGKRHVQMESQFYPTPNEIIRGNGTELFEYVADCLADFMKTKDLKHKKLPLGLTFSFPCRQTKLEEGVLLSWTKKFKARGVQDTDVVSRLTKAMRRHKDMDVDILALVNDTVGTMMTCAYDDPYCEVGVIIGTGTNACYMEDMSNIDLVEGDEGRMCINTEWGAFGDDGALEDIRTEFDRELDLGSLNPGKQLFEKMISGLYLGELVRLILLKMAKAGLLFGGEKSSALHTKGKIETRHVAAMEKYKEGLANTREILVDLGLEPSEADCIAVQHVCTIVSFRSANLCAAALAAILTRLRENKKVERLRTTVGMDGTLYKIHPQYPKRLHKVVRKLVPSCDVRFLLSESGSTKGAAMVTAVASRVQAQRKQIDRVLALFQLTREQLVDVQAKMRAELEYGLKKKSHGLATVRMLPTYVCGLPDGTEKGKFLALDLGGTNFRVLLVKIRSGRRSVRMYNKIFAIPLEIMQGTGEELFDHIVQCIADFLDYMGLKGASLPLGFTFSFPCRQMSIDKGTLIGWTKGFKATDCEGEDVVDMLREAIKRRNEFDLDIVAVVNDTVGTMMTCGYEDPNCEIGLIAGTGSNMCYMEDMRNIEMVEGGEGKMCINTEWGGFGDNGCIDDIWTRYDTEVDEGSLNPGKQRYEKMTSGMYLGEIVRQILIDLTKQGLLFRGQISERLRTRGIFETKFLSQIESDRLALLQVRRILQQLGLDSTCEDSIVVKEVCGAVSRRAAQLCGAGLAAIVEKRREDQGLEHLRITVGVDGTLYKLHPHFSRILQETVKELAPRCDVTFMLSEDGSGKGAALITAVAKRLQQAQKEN
# Major prion protein = Major prion protein (Homo sapiens, UniProt P04156); type: functional, cell-based
compound,measurement,setting,value
CCC[C@@H](CN1CCC[C@H]1CN1C(N)=NC[C@H]1CC(C)C)N1C[C@@H](Cc2ccccc2)N(CCc2ccc(Cl)c(Cl)c2)C1=N,EC50,Beta-galactosidase,> 40 µM (inactive)
same,IC50,[1],> 40 µM (not active)
same,IC50,Bcl-2-related protein A1,> 20 µM (inactive)
same,IC50,[2],12.5 µM (active)
same,IC50,Melanocortin receptor 4,7.65 µM (active)
same,IC50,[3],> 64.6 µM (inactive)
same,AC50,[4],14.7 µM (active)
Cc1[nH]c2ccccc2c1C(=O)C(=O)N1CCCCCC1,IC50,Caspase-3,> 99 µM (inactive)
same,IC50,[5],> 99 µM (inactive)
same,IC50,[6],> 99 µM (inactive)
same,IC50,[7],> 99 µM (inactive)
O=C(CSc1ncnc2ccccc12)Nc1cccc(S(=O)(=O)N2CCOCC2)c1,IC50,Hexokinase-1,> 80 µM (inactive)
same,IC50,Hexokinase HKDC1,> 80 µM (inactive)
same,IC50,Major prion protein,9.12 µM (active)
same,IC50,cells,> 138 µM (inactive)
